Bounds are passed on as bounds.

This assay has as its system NCI-H226. As to the kind of experiment: 72H TEAD Proliferation Assay (Cell Titer Glo 2.0). In kind it is cell-based. Particulars: Homo sapiens, NCI-H226, 72 h, CTG 2.0, cell line not given (NCI-H226 responsive, NCI-H28 non-responsive). A digest of the protocol: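 NF2-deficient NCI-H226 mesothelioma cells, TEAD-dependent, treated 72 h; NF2-wild-type NCI-H28 serves as the TEAD-independent counter-screen for off-target cytotoxicity. Viable cells quantified by CellTiter-Glo 2.0 luminescence; background and time-zero signal subtracted, GI50 from nonlinear dose-response fit.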

`C=CC(=O)NC(C)c1cn2ccnc2c(-c2ccc(C(C)(C)C)cc2)n1` (stereo not drawn) [I-142, N-(1-(8-(4-(tert-butyl)phenyl)imidazo[1,2-a]pyrazin-6-yl)ethyl)acrylamide] yielded a GI50 of no more than 1 µM.

The compound `CNC(=O)c1cn2ccnc2c(-c2ccc(C(C)(C)C)cc2)n1` [I-143, 8-(4-(tert-Butyl)phenyl)-N-methylimidazo[1,2-a]pyrazine-6-carboxamide] returned a GI50 greater than 10 µM. In the case of `CC(C)(C)c1ccc(-c2ncn3cc(C(=O)O)ccc23)cc1` [I-144, 1-(4-(tert-Butyl)phenyl)imidazo[1,5-a]pyridine-6-carboxylic acid], the concentration for 50% growth inhibition (GI50) was greater than 10 µM. Compound `CC(C)(C)c1ccc(-c2ncc3ccc(C(=O)O)cn23)cc1` [I-145, 3-(4-(tert-Butyl)phenyl)imidazo[1,5-a]pyridine-6-carboxylic acid] gave a concentration for 50% growth inhibition (GI50) greater than 10 µM. For `C=CC(=O)Nc1cn2ccnc2c(-c2ccc(C(C)(C)C)cc2)n1` [I-146, N-(8-(4-(tert-Butyl)phenyl)imidazo[1,2-a]pyrazin-6-yl)acrylamide], the 50% growth inhibitory concentration (GI50) fell in the range of 1 to 5 µM.

`CC(C)(C)c1ccc(-c2nc(C(=O)O)cn3ccnc23)cc1` [I-147, 8-(4-(tert-Butyl)phenyl)imidazo[1,2-a]pyrazine-6-carboxylic acid] gave a GI50 greater than 10 µM. In the case of `CC(C)(C)c1ccc(-c2nc(O)cn3ccnc23)cc1` [I-148, 8-(4-(tert-Butyl)phenyl)imidazo[1,2-a]pyrazin-6-ol], the GI50 is greater than 10 µM. With `COc1cn2ccnc2c(-c2ccc(C(C)(C)C)cc2)n1` [I-149, 8-(4-(tert-Butyl)phenyl)-6-methoxyimidazo[1,2-a]pyrazine], the GI50 is greater than 10 µM.

`COc1cnc(-c2ccc(C(C)(C)C)cc2)c2nccn12` [I-150, 8-(4-(tert-Butyl)phenyl)-5-methoxyimidazo[1,2-a]pyrazine]: the 50% growth inhibitory concentration (GI50) is greater than 10 µM. In the case of `COC(=O)/C=C/c1cn2ccnc2c(-c2ccc(C(C)(C)C)cc2)n1` [I-151, Methyl (E)-3-(8-(4-(tert-butyl)phenyl)imidazo[1,2-a]pyrazin-6-yl)acrylate], the concentration for 50% growth inhibition (GI50) was greater than 10 µM. Regarding `CC(C)(C)c1ccc(-c2nc(/C=C/C(=O)O)cn3ccnc23)cc1` [I-152, (E)-3-(8-(4-(tert-butyl)phenyl)imidazo[1,2-a]pyrazin-6-yl)acrylic acid], the GI50 fell in the range of 1 to 5 µM. The same measure for `CC(C)(C)c1ccc(-c2nc(CCC(=O)O)cn3ccnc23)cc1` [I-153, 3-(8-(4-(tert-Butyl)phenyl)imidazo[1,2-a]pyrazin-6-yl)propanoic acid]: greater than 10 µM; for `CC(C)(C)c1ccc(-c2nc(/C=C/C#N)cn3ccnc23)cc1` [I-154, (E)-3-(8-(4-(tert-Butyl)phenyl)imidazo[1,2-a]pyrazin-6-yl)acrylonitrile]: 1 to 5 µM; for `CC(C)(C)c1ccc(-c2nc(/C=C/c3nnn[nH]3)cn3ccnc23)cc1` [I-155, (E)-6-(2-(1H-tetrazol-5-yl)vinyl)-8-(4-(tert-butyl)phenyl)imidazo[1,2-a]pyrazine]: greater than 10 µM. As for `CC(C)(C)c1ccc(-c2nc(CCc3nnn[nH]3)cn3ccnc23)cc1` [I-156, 6-(2-(1H-tetrazol-5-yl)ethyl)-8-(4-(tert-butyl)phenyl)imidazo[1,2-a]pyrazine], the concentration for 50% growth inhibition (GI50) was greater than 10 µM. Compound `CC(C)(C)c1ccc(-c2cnc3ccc(C(=O)O)cc3n2)cc1` [I-157, 3-(4-(tert-Butyl)phenyl)quinoxaline-6-carboxylic acid] returned a concentration for 50% growth inhibition (GI50) greater than 10 µM. `CC(C)(C)c1ccc(-c2cnc3ccc(C(N)=O)cc3n2)cc1` [I-158, 3-(4-(tert-Butyl)phenyl)quinoxaline-6-carboxamide] came in with a GI50 greater than 10 µM. Next, `CC(C)(C)c1ccc(-c2cnc3ccc(C#N)cc3n2)cc1` [I-159, 3-(4-(tert-butyl)phenyl)quinoxaline-6-carbonitrile]: greater than 10 µM. `CC(C)(C)c1ccc(-c2cnc3ccc(-c4nnn[nH]4)cc3n2)cc1` [I-160, 2-(4-(tert-Butyl)phenyl)-7-(1H-tetrazol-5-yl)quinoxaline]: the GI50 is greater than 10 µM. `CC(C)(C)c1ccc(-c2nc3cc(C(N)=O)ccc3n3cccc23)cc1` [I-166, 4-(4-(tert-butyl)phenyl)pyrrolo[1,2-a]quinoxaline-7-carboxamide] displayed a GI50 of no more than 1 µM.

`C=CC(=O)NCc1nc(-c2ccc(C(F)(F)F)cc2)c2ccccc2n1` [I-167, N-((4-(4-(trifluoromethyl)phenyl)quinazolin-2-yl)methyl)acrylamide] returned a concentration for 50% growth inhibition (GI50) of no more than 1 µM. The same measure for `C=C(F)C(=O)NCc1cc2ccccc2c(-c2ccc(C(F)(F)F)cc2)n1` [I-168, 2-Fluoro-N-((1-(4-(trifluoromethyl)phenyl)isoquinolin-3-yl)methyl)acrylamide]: no more than 1 µM. `C=CC(=O)NCc1cn2ccnc2c(Nc2cccc(C(F)(F)F)c2)n1` [I-169, N-((8-((3-(trifluoromethyl)phenyl)amino)imidazo[1,2-a]pyrazin-6-yl)methyl) acrylamide] returned a GI50 of no more than 1 µM. Consider `C=CC(=O)NCc1cn2ccnc2c(Nc2ccc(C(F)(F)F)cn2)n1` [I-170, N-((8-((5-(trifluoromethyl)pyridin-2-yl)amino)imidazo[1,2-a]pyrazin-6-yl)methyl)acrylamide], for which the GI50 was no more than 1 µM. `C=CC(=O)NCc1cn2ccnc2c(Oc2cccc(C(F)(F)F)c2)n1` [I-171, N-((8-(3-(trifluoromethyl)phenoxy)imidazo[1,2-a]pyrazin-6-yl)methyl)acrylamide] showed a concentration for 50% growth inhibition (GI50) of no more than 1 µM. For the compound `C=CC(=O)NC(C)c1cn2ccnc2c(-c2ccc(C(F)(F)F)cc2)n1` (stereo not drawn) [I-172, N-(1-(8-(4-(trifluoromethyl)phenyl)imidazo[1,2-a]pyrazin-6-yl)ethyl)acrylamide], the GI50 is no more than 1 µM. As for `C=CC(=O)NCc1cn2ccnc2c(-c2ccc(OC(F)(F)F)cc2)n1` [I-173, N-((8-(4-(trifluoromethoxy)phenyl)imidazo[1,2-a]pyrazin-6-yl)methyl)acrylamide], the GI50 is no more than 1 µM. The compound `C=CC(=O)NCc1cn2ccnc2c(Oc2ccc(C(F)(F)F)cc2)n1` [I-174, N-((8-(4-(trifluoromethyl)phenoxy)imidazo[1,2-a]pyrazin-6-yl)methyl)acrylamide] yielded a GI50 of no more than 1 µM.

Compound `C=CC(=O)NCc1cn2ccnc2c(-c2ccc(C(F)(F)F)cc2F)n1` [I-175, N-((8-(2-Fluoro-4-(trifluoromethyl)phenyl)imidazo[1,2-a]pyrazin-6-yl)methyl)acrylamide] gave a concentration for 50% growth inhibition (GI50) of no more than 1 µM. `FC(F)(F)c1ccc(-c2nc(C3CC(Br)=NO3)cn3ccnc23)cc1` (stereo not drawn) [I-176, 3-bromo-5-(8-(4-(trifluoromethyl)phenyl)imidazo[1,2-a]pyrazin-6-yl)-4,5-dihydroisoxazole]: the concentration for 50% growth inhibition (GI50) is no more than 1 µM. `C=CC(=O)N(C)Cc1cn2ccnc2c(-c2ccc(C(F)(F)F)cc2)n1` [I-177, N-Methyl-N-((8-(4-(trifluoromethyl)phenyl)imidazo[1,2-a]pyrazin-6-yl)methyl)acrylamide] had a 50% growth inhibitory concentration (GI50) of no more than 1 µM.

Regarding `C=C(F)C(=O)NCc1cn2ccnc2c(-c2ccc(C(F)(F)F)cc2)n1` [I-178, 2-Fluoro-N-((8-(4-(trifluoromethyl)phenyl)imidazo[1,2-a]pyrazin-6-yl)methyl)acrylamide], the GI50 was no more than 1 µM.

The compound `CC(NC(=O)N1CCc2c(cccc2-c2ccc(C(F)(F)F)cc2)C1)c1ccccn1` (stereo not drawn) [I-179, N-(1-(pyridin-2-yl)ethyl)-5-(4-(trifluoromethyl)phenyl)-3,4-dihydroisoquinoline-2(1H)-carboxamide] registered a GI50 of no more than 1 µM.

Values taken from patent US12655150B2 (Cedilla Therapeutics, Inc., priority 2021, dated 2026).
